Experimental data from US4820695A, “C-20-dihydro-deoxy-(cyclic amino)-derivatives of macrolide antibiotics” (priority 1987, dated 1989).
In brackets after ≈: the same amount, converted by molar mass. Read-outs that look alike come from different tables or passages of the source.

How the values were obtained:
Pasteurella multocida = experiment: Pasteurella infection in one-day-old chicks, subcutaneous administration (Table XII); type: in vivo; conditions: Administered subcutaneously, 30 mg/kg × 2, 1 and 4 hours post-challenge
Method: Many of the C-20 modified derivatives of this invention have also shown in vivo antibacterial activity against infections induced by gram-negative bacteria. Tables XII and XIII summarize the results of tests in which illustrative compounds were evaluated against a Pasteurella infection in one-day-old chicks. The compounds were administered parenterally or orally after challenge of the chicks with Pasteurella multocida (0.1 ml of a 10^-4 dilution of a twenty-hour tryptose broth culture of an avian P. multocida given subcutaneously). In these tests, unless indicated otherwise, all non-medicated infected chicks died within 24 hours of Pasteurella challenge. In the tests summarized in Table XII, the compounds were administered by subcutaneous injection at a dosage of 30 mg/kg, 1 and 4 hours post-challenge of the chicks with P. multocida. In the tests summarized in Table XIII the compounds were administered in medicated drinking water (at a level of 2 g/gal) available from 4 to 20 hours prior to challenge of the chicks with P. multocida and during the 3 -day test period.
^a Administered subcutaneously; 30 mg/kg × 2

[1] = test system: Streptococcus Group D X66; experiment: MIC, standard agar-dilution assay (Table IX); type: cell-based; conditions: read-out: MIC
[2] = test system: Streptococcus pyogenes C203; experiment: MIC, standard agar-dilution assay (Table IX); type: cell-based; conditions: read-out: MIC
Escherichia coli N10 = experiment: MIC, standard agar-dilution assay (Table IX); type: cell-based; conditions: read-out: MIC
[3] = test system: Staphylococcus epidermidis EPI1; experiment: MIC, standard agar-dilution assay (Table IX); type: cell-based; conditions: Staphylococcus epidermidis EPI1; agar-dilution; read-out: MIC
[4] = test system: Streptococcus pneumoniae Park I; experiment: MIC, standard agar-dilution assay (Table IX); type: cell-based; conditions: Streptococcus pneumoniae Park I; agar-dilution; read-out: MIC
[5] = test system: Haemophilus influenzae C.L.; experiment: MIC, standard agar-dilution assay (Table IX); type: cell-based; conditions: Ampicillin-sensitive strain, read-out: MIC
Escherichia coli TEM = experiment: MIC, standard agar-dilution assay (Table IX); type: cell-based; conditions: read-out: MIC
[6] = test system: Staphylococcus aureus X400; experiment: MIC, standard agar-dilution assay (Table IX); type: cell-based; conditions: Staphylococcus aureus X400, Methicillin-resistant strain, read-out: MIC
Staphyloccus aureus X1.1 = experiment: MIC, standard agar-dilution assay (Table IX); type: cell-based, Staphylococcus aureus; conditions: Staphylococcus aureus, read-out: MIC
[7] = test system: Streptococcus Group D 2041; experiment: MIC, standard agar-dilution assay (Table IX); type: cell-based; conditions: GROUPD2041, read-out: MIC
[8] = test system: Staphylococcus epidermidis 222; experiment: MIC, standard agar-dilution assay (Table IX); type: cell-based; conditions: read-out: MIC
[9] = test system: Haemophilus influenzae 76; experiment: MIC, standard agar-dilution assay (Table IX); type: cell-based; conditions: Haemophilus influenzae 76, Ampicillin-resistant strain, read-out: MIC
Escherichia coli EC14 = experiment: MIC, standard agar-dilution assay (Table IX); type: cell-based; conditions: read-out: MIC
Klebsiella X26 = experiment: MIC, standard agar-dilution assay (Table IX); type: cell-based; conditions: read-out: MIC
[10] = test system: Staphylococcus aureus S13E; experiment: MIC, standard agar-dilution assay (Table IX); type: cell-based; conditions: Staphylococcus aureus, S13E
[11] = test system: Mycoplasma gallisepticum 29C; experiment: MIC, broth-dilution microtiter test (Table X); type: cell-based; conditions: Mycoplasmoides gallisepticum, read-out: MIC
Excerpt: (§1) The MIC's in Table X were obtained using conventional broth-dilution microtiter tests.

[12] = test system: Pasteurella multocida 60A; experiment: MIC, broth-dilution microtiter test (Table X); type: cell-based; conditions: Avian isolate, read-out: MIC
Excerpt: as §1

[13] = test system: Pasteurella multocida 17E; experiment: MIC, broth-dilution microtiter test (Table X); type: cell-based; conditions: Bovine isolate, read-out: MIC
Excerpt: as §1

Streptococcus sp. 19F = experiment: MIC, broth-dilution microtiter test (Table X); type: cell-based; conditions: read-out: MIC
Excerpt: as §1

[14] = test system: Pasteurella hemolytica 22C; experiment: MIC, broth-dilution microtiter test (Table X); type: cell-based; conditions: read-out: MIC
Excerpt: as §1

Mycoplasma hyorhinis 29E = experiment: MIC, broth-dilution microtiter test (Table X); type: cell-based; conditions: read-out: MIC
Excerpt: as §1

[15] = test system: Mycoplasma hyopneumoniae S5972; experiment: MIC, broth-dilution microtiter test (Table X); type: cell-based; conditions: Mesomycoplasma hyopneumoniae, read-out: MIC
Excerpt: as §1

Mycoplasma synoviae 40A = experiment: MIC, broth-dilution microtiter test (Table X); type: cell-based; conditions: Mycoplasmopsis synoviae, read-out: MIC
Excerpt: as §1

Staphylococcus aureus = experiment: MIC, broth-dilution microtiter test (Table X); type: cell-based; conditions: read-out: MIC
Excerpt: as §1

[16] = test system: Staphylococcus aureus V41; experiment: MIC, standard agar-dilution assay (Table IX); type: cell-based; conditions: Staphylococcus aureus V41, Penicillin-resistant strain, read-out: MIC
[17] = test system: Streptococcus pyogenes C203; experiment: ED50 in mice experimentally infected with S. pyogenes C203 (Table XI); type: in vivo; conditions: Streptococcus pyogenes, doses given 1 and 4 hours postinfection, read-out: ED50
Method: The C-20 modified derivatives of this invention have shown in vivo antimicrobial activity against experimentally-induced infections in laboratory animals. When two doses of test compound were administered to mice experimentally infected with S. pyogenes C203, the activity observed was measured as an ED50 value [effective dose in mg/kg to protect 50% of the test animals: see Warren Wick, et al., J. Bacteriol. 81, 233-235 (1961)].
^a mg/kg × 2; doses given 1 and 4 hours postinfection

[18] = Titratable groups in 66% aqueous DMF (Tables XIV-XVI); type: physicochemical
Excerpt: ^c Run in 66% aqueous DMF
^d Run in 66% aqueous DMF

CCC1OC(=O)CC(O)C(C)C(OC2OC(C)C(O)C(N(C)C)C2O)C(CCN2CCC(Cc3ccccc3)CC2)CC(C)C(=O)C=CC(C)=CC1COC1OC(C)C(O)C(OC)C1OC (centres unmarked) [Compound D27, 20-DH-DO-20-(4-benzyl-piperidin-1-yl)desmycosin]
Number of Deaths/Number Treated (Pasteurella multocida): 8/10
MIC [1]: 2 µg/mL (≈ 2.15 µM)
MIC [2]: 0.25 µg/mL (≈ 0.268 µM)
MIC (Escherichia coli N10): 128 µg/mL (≈ 137 µM)
MIC [3]: 1 µg/mL (≈ 1.07 µM)
MIC [4]: 0.5 µg/mL (≈ 0.537 µM)
MIC [5]: 32 µg/mL (≈ 34.4 µM)
MIC (Escherichia coli TEM): 32 µg/mL (≈ 34.4 µM)
MIC [6]: 1 µg/mL (≈ 1.07 µM)
MIC (Staphyloccus aureus X1.1): 1 µg/mL (≈ 1.07 µM)
MIC [7]: 4 µg/mL (≈ 4.3 µM)
MIC [8]: 0.25 µg/mL (≈ 0.268 µM)
MIC [9]: 16 µg/mL (≈ 17.2 µM)
MIC (Escherichia coli EC14): 128 µg/mL (≈ 137 µM)
MIC (Klebsiella X26): 64 µg/mL (≈ 68.7 µM)
MIC [10]: 1 µg/mL (≈ 1.07 µM)
MIC [11]: ≤ 0.048 µg/mL
MIC [12]: 12.5 µg/mL (≈ 13.4 µM)
MIC [13]: 6.25 µg/mL (≈ 6.71 µM)
MIC (Streptococcus sp. 19F): 0.78 µg/mL (≈ 0.838 µM)
MIC [14]: 12.5 µg/mL (≈ 13.4 µM)
MIC (Mycoplasma hyorhinis 29E): 25 µg/mL (≈ 26.8 µM)
MIC [15]: 0.39 µg/mL (≈ 0.419 µM)
MIC (Mycoplasma synoviae 40A): ≤ 0.048 µg/mL
MIC (Staphylococcus aureus): 3.12 µg/mL (≈ 3.35 µM)
MIC [16]: 1 µg/mL (≈ 1.07 µM)
ED50 ([17]; C203, Oral): 16.5 mg/kg
ED50 ([17]; C203, sc, Subcutaneous): 3.81 mg/kg

CCC1OC(=O)CC(O)C(C)C(OC2OC(C)C(O)C(N(C)C)C2O)C(CCN2CC=C(c3ccccc3)CC2)CC(C)C(=O)C=CC(C)=CC1COC1OC(C)C(O)C(OC)C1OC (centres unmarked) [Compound D26, 20-DH-DO-20-(4-phenyl-1,2,3,6-tetrahydropyridin-1-yl)desmycosin]
Number of Deaths/Number Treated (Pasteurella multocida): 10/10
MIC [1]: 1 µg/mL (≈ 1.09 µM)
MIC [2]: 0.25 µg/mL (≈ 0.273 µM)
MIC (Escherichia coli N10): 128 µg/mL (≈ 140 µM)
MIC [3]: 0.5 µg/mL (≈ 0.546 µM)
MIC [4]: 0.25 µg/mL (≈ 0.273 µM)
MIC [5]: 32 µg/mL (≈ 35 µM)
MIC (Escherichia coli TEM): 32 µg/mL (≈ 35 µM)
MIC [6]: 0.5 µg/mL (≈ 0.546 µM)
MIC (Staphyloccus aureus X1.1): 0.5 µg/mL (≈ 0.546 µM)
MIC [7]: 2 µg/mL (≈ 2.19 µM)
MIC [8]: 0.25 µg/mL (≈ 0.273 µM)
MIC [9]: 8 µg/mL (≈ 8.74 µM)
MIC (Escherichia coli EC14): 128 µg/mL (≈ 140 µM)
MIC (Klebsiella X26): 64 µg/mL (≈ 69.9 µM)
MIC [10]: 0.5 µg/mL (≈ 0.546 µM)
MIC [11]: ≤ 0.048 µg/mL
MIC [12]: 12.5 µg/mL (≈ 13.7 µM)
MIC [13]: 6.25 µg/mL (≈ 6.83 µM)
MIC (Streptococcus sp. 19F): 0.78 µg/mL (≈ 0.852 µM)
MIC [14]: 12.5 µg/mL (≈ 13.7 µM)
MIC (Mycoplasma hyorhinis 29E): 25 µg/mL (≈ 27.3 µM)
MIC [15]: 0.78 µg/mL (≈ 0.852 µM)
MIC (Mycoplasma synoviae 40A): 0.78 µg/mL (≈ 0.852 µM)
MIC (Staphylococcus aureus): 3.12 µg/mL (≈ 3.41 µM)
MIC [16]: 0.5 µg/mL (≈ 0.546 µM)
ED50 ([17]; C203, Oral): 12.5 mg/kg
ED50 ([17]; C203, sc, Subcutaneous): 5.61 mg/kg

CCC1OC(=O)CC(O)C(C)C(OC2OC(C)C(O)C(N(C)C)C2O)C(CCN2CCCC(C(=O)N(CC)CC)C2)CC(C)C(=O)C=CC(C)=CC1COC1OC(C)C(O)C(OC)C1OC (centres unmarked) [Compound D15, 20-DH-DO-20-[3-(N,N-diethylcarbamoyl)piperidin-1-yl]desmycosin]
MIC [1]: 32 µg/mL (≈ 34 µM)
MIC [2]: 0.5 µg/mL (≈ 0.532 µM)
MIC (Escherichia coli N10): > 128 µg/mL
MIC [3]: 2 µg/mL (≈ 2.13 µM)
MIC [4]: 1 µg/mL (≈ 1.06 µM)
MIC [5]: 32 µg/mL (≈ 34 µM)
MIC (Escherichia coli TEM): 64 µg/mL (≈ 68.1 µM)
MIC [6]: 4 µg/mL (≈ 4.25 µM)
MIC (Staphyloccus aureus X1.1): 2 µg/mL (≈ 2.13 µM)
MIC [7]: 32 µg/mL (≈ 34 µM)
MIC [8]: 1 µg/mL (≈ 1.06 µM)
MIC [9]: 32 µg/mL (≈ 34 µM)
pKa ([18]; Titratable groups): 8.6
pKa ([18]; Titratable groups (first value)): 7.4
MIC (Escherichia coli EC14): > 128 µg/mL
MIC (Klebsiella X26): 32 µg/mL (≈ 34 µM)
MIC [10]: 2 µg/mL (≈ 2.13 µM)
MIC [11]: 3.12 µg/mL (≈ 3.32 µM)
MIC [12]: 12.5 µg/mL (≈ 13.3 µM)
MIC [13]: 12.5 µg/mL (≈ 13.3 µM)
MIC (Streptococcus sp. 19F): 12.5 µg/mL (≈ 13.3 µM)
MIC [14]: 25 µg/mL (≈ 26.6 µM)
MIC (Mycoplasma hyorhinis 29E): > 50 µg/mL
MIC [15]: 3.12 µg/mL (≈ 3.32 µM)
MIC (Mycoplasma synoviae 40A): 1.56 µg/mL (≈ 1.66 µM)
MIC (Staphylococcus aureus): 6.25 µg/mL (≈ 6.65 µM)
MIC [16]: 2 µg/mL (≈ 2.13 µM)
